Assay results as given in ChEMBL document CHEMBL5726250, “AMPK-activating heterocyclic compounds and methods for using the same” (2017).
pEC50: −log10 of the molar value.

Biological target: 5'-AMP-activated protein kinase catalytic subunit alpha-2 (Homo sapiens, UniProt P54646)
Assay: Enzyme-Linked Immunosorbent Assay: Compounds were assayed for their ability to activate AMPK using an enzyme-linked immunosorbent assay. Reagents and procedures for measuring AMPK activation are well known and kits for AMPK activation assays are commercially available.

Sequence of 5'-AMP-activated protein kinase catalytic subunit alpha-2 (P54646 whole entry): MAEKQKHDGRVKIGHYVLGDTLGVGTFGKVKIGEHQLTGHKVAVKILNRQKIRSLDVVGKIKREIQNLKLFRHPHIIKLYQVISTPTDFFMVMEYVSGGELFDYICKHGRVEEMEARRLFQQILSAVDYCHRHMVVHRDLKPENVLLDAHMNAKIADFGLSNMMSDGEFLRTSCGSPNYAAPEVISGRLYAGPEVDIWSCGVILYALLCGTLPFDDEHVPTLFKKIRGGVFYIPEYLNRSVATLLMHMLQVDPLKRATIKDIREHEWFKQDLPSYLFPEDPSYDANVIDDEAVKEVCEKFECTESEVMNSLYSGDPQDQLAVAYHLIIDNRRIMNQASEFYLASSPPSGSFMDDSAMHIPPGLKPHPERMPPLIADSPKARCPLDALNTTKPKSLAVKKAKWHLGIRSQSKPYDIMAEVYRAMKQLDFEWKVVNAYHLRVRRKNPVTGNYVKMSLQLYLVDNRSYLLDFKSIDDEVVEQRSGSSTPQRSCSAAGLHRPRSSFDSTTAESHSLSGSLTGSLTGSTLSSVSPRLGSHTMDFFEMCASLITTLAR

| pEC50 | Structure (SMILES) |
| --- | --- |
| < 5.00 | O=C(Nc1ccc(-c2ccc([N+](=O)[O-])cc2)cc1)c1ccc(C(=O)N2CCN(Cc3ccc(F)cc3)CC2)cn1 |
| < 5.00 | O=C(Nc1ccccc1-c1ccccc1)c1ccc(C(=O)N2CCN(Cc3ccc(F)cc3)CC2)cn1 |
